Test results from article PMC7649969, “Pyrazolyl-pyrimidones inhibit the function of human solute carrier protein SLC11A2 (hDMT1) by metal chelation” (RSC Medicinal Chemistry, 2020).
“Also recorded” adds a separate entry of the source. Read-outs that look alike come from different tables or passages of the source.

What was measured:
SLC39A8 (hZIP8) = target: T1, SLC39A8 (hZIP8) (Homo sapiens, UniProt Q9C0K1); test: 55Fe2+ uptake by HEK293T cells transiently transfected with hZIP8; format: cell-based; conditions: for inhibition of 55Fe2+ uptake by hZIP8: compound 10 μM, 55Fe2+ 1 μM, pH 7.4, HEK293T; for IC50: HEK293T transiently transfected with hZIP8, 55Fe2+ 1 μM, pH 7.4
T1 construct: DsRED; expressed in transfected cells; host or cells: HEK293T (ATCC CRL-3216), transient transfection with Lipofectamine 2000
T1 sequence (Q9C0K1 23-460): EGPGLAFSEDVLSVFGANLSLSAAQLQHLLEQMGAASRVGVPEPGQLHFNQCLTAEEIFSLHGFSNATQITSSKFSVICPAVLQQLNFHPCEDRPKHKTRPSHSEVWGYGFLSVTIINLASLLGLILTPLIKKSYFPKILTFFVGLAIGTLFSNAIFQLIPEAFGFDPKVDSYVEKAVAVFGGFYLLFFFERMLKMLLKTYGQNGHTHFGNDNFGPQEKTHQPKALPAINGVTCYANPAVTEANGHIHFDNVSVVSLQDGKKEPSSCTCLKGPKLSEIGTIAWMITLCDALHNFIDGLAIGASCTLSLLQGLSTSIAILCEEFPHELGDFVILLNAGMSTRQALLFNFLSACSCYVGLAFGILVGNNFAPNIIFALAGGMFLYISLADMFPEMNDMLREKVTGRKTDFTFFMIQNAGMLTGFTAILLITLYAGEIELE
Excerpt: Complex formation with Fe^2+ should result in non-selective inhibition of different metal transporters. To test this hypothesis, we investigated whether human SLC39A8 (hZIP8), a transporter of Zn^2+ and Fe^2+ unrelated to SLC11 family, might also be inhibited by our hDMT1 inhibitors. Both SLCs can be tested by inhibition of radioactive iron uptake into HEK293 cells expressing the transporter, at pH 5.5 for hDMT1 and at pH 7.4 for hZIP8.
Fig. 5 Cross reactivity of hDMT1 inhibitors over the functional activity of the divalent metal transporter hZIP8. (a) ^55Fe^2+ uptake (1 μM) by HEK293T cells (source: American Type Culture Collection, catalog no. CRL-3216) transiently transfected with the empty vector (Ev), hDMT1 or hZIP8. Uptake assay was performed at the optimal pH for the functional activity of each transporter (pH 5.5 and pH 7.4 respectively). The indicated compounds (10 μM) were pre-incubated for 5 min, and then, for 15 min with both compound and ^55Fe^2+. Measured ^55Fe^2+ was corrected by subtracting the background iron uptake measured in non-transfected cells. The data was normalized to the Fe^2+ uptake measured in the presence of DMSO (0.1%) and represented as mean ± SD (N = 5–16; obtained from 2 independent experiments). IC50 determination for pyrazolyl-pyrimidone 13 (b) and bipyridine (c) in HEK293T cells transiently transfected with hDMT1 (left panels) or hZIP8 (right panels). ^55Fe^2+ uptake (1 μM) was measured in the presence of the indicated compound concentration ranges, and the measurements were corrected by subtracting the background iron uptake measured in non-transfected cells. IC50 values were calculated by fitting the data to a sigmoidal 4-parameter equation. Representative experiments are depicted, while IC50 values were calculated as mean ± SD of 3 different experiments.
Chemicals and reagents were purchased from Merck, except where indicated otherwise.
Cell Culture. Cellular experiments where conducted either with a HEK293 cell line (ATCC) stably expressing DsRED-hDMT1 plasmid or HEK293T cells (ATCC) transiently transfected with DsRED-hZIP8 or DsRED-hDMT1 plasmids. The cell line stably expressing hDMT1 was generated as described in previous works1,2. In both cases, cells were cultured in Dulbecco´s modified Eagle´s medium (DMEM) supplemented with 10 % foetal bovine serum (FBS), 10 mM HEPES and 1 mM Na-pyruvate under standard cell culture conditions (37 °C, 95 % humidity and air containing 5 % CO2). When culturing the hDMT1 overexpressing cell line, to maintain stable the expression of the exogenous plasmid, culture media was also supplemented with […] geneticin (Life Technologies). […]
Radiolabelled iron uptake assay. Cells were seeded in clear bottom, white-well, poly-D-lysine coated 96-well plates (Corning). HEK293 cells stably over-expressing hDMT1 were seeded 24 hours before the experiment at a density of 50,000 cells/well. HEK293T cells were seeded at 30,000 cells/well 48 hours before the experiment, and 24 hours after were transfected […]
using Lipofectamine 2000 (Life technologies) as described in the manufacturer’s protocol.
Before the uptake assay, culture media was aspirated and the cells were washed with the uptake solution (140 mM NaCl, 2.5 mM KCl, 1 mM CaCl2, 1 mM MgCl2, 1.2 mM K2HPO4, 10 mM glucose, 5 mM HEPES, 5 mM MES, pH 7.4). To determine the iron uptake, the cells were incubated for 15 min at room temperature (RT) with uptake solution (pH 5.5) supplemented with 100 µM Ascorbic acid, and the indicated amount of non-radioactive Ferrous iron (Fe2+) and radiolabelled 55Fe2+ (American Radiolabelled) (0.5 µCi/mL). To stop the uptake process, the solution containing the radiotracer was removed and cells were washed with ice-cold uptake solution (pH 7.5). To determine the iron accumulated within the cells during the incubation time, the scintillation cocktail Mycrosinth 20 (PerkinElmer) was added to each well, and the cells were incubated during 1 hour at RT under constant agitation. […]

[1] = acid-base titration with NaOH; format: physicochemical; conditions: Milli-Q water with 10% DMSO, ~2 mM compound
Description: Fig. 6 (a) Acid–base titration of 3, 5, 13 and neutral and basic forms of 3, 5, 13. (20 μmol of compound in 10 mL (10% DMSO, ∼2 mM), 3 and 5 were acidified with HCl (50 μmol)). (b) Acid-base equilibria for inhibitors 3, 5 and 13 highlighting potentially metal chelating nitrogen atoms in red. (c) TMAP of our inhibitors combined with 169 pyrazolyl-pyrimidones and 1717 pyrazolyl-pyridines found in ChEMBL, color coded by source: cyan = pyrazolyl-pyridines from ChEMBL, blue = pyrazolyl-pyrimidones from ChEMBL, red = this work. Insert: Close-up view around pyrazolyl-pyrimidones color-coded by target class: red = transporter, cyan = enzyme, magenta = unclassified protein, grey = unclassified target. The interactive TMAP including further color-codes (target classes, QED, etc.) is accessible at:; http://tm.gdb.tools/dmt1_inhibitors/pyrimidones_pyridines/ […]
Milli-Q water, 1 mL DMSO and 0.5 mL HCl 0.1 M (Final concentration of 2 mM). Compound
13 (HCl salt, 200 µL, 0.1 M in DMSO) was dissolved in 0.8 mL DMSO and […] Milli-Q
water. Then, a solution of 0.1 M NaOH was added by steps of 2 µL with a Dosimat plus
(Metrohm, Zofingen, Switzerland) and pH was measured using a 692 pH/ion meter (Metrohm).

inhibition of 55Fe2+ uptake by hZIP8 (SLC39A8 (hZIP8))	pKa ([1]; read-out: pKa1)	pKa ([1]; read-out: pKa2)	Compound	IC50 (SLC39A8 (hZIP8)) [µM]
no measurable activity on hZIP8			N=C(N)SCc1cccc2c1oc1c(CSC(=N)N)cccc12 [Compound 1, reference compound]	
inhibited both transporters	3.3	6.7	Cc1nn(-c2ccccn2)c(O)c1C(=O)Nc1cccc(C(F)(F)F)c1 [Compound 3, reference compound]	
inhibited both transporters	3.6	6.5	Cc1cc(O)nc(-n2nc(C)cc2C)n1 [Compound 5]	

Compound	inhibition of 55Fe2+ uptake by hZIP8 (SLC39A8 (hZIP8))	pKa ([1]; read-out: pKa1)	pKa ([1]; read-out: pKa2)	IC50 (SLC39A8 (hZIP8)) [µM]
Cc1cc(=O)[nH]c(-n2nc3c(c2C)CCCC3)n1 [Compound 13]	inhibited both transporters; also recorded: cross-inhibition	3.3	7	~1.1
c1ccc(-c2ccccn2)nc1 [bipyridine]	inhibited both transporters			~6.5
